SMILES strings stand for the structures.

For the compound `CC(CNS(=O)(=O)C(C)C)c1ccc(-c2ccc3c(c2)CC(=O)N3)cc1` (centres unmarked) [Example 3, 5-[4-(1-methyl-2-{[(methylethyl)sulfonyl]amino}ethyl)phenyl]indolin-2-one], the melting point was in the range of 170 to 171 °C. Take `CC(C)S(=O)(=O)NC[C@H](C)c1ccc(-c2ccc3c(c2)CC(=O)N3)cc1` [Example 4, 5-[4-((1R)-1-methyl-2-{[(methylethyl)sulfonyl]amino}ethyl)phenyl]indolin-2-one]: the melting point lay in the range of 184 to 185 °C.

By melting point is commonly meant the temperature, or range, at which the solid turns liquid.

The record behind these values is patent US20030225127A1, “Heterocyclic sulfonamide derivatives” (priority 2003, published 2003).
